These results are taken from BindingDB's records for patent US9175357 (University of South Carolina, 2015).

The experiment addresses Serine/threonine-protein kinase PLK1 (Homo sapiens, UniProt P53350). Put plainly: Fluorescent Polarization Binding Assay. Conditions: pH 8; 25 °C.

Sequence of Serine/threonine-protein kinase PLK1 (P53350 whole entry): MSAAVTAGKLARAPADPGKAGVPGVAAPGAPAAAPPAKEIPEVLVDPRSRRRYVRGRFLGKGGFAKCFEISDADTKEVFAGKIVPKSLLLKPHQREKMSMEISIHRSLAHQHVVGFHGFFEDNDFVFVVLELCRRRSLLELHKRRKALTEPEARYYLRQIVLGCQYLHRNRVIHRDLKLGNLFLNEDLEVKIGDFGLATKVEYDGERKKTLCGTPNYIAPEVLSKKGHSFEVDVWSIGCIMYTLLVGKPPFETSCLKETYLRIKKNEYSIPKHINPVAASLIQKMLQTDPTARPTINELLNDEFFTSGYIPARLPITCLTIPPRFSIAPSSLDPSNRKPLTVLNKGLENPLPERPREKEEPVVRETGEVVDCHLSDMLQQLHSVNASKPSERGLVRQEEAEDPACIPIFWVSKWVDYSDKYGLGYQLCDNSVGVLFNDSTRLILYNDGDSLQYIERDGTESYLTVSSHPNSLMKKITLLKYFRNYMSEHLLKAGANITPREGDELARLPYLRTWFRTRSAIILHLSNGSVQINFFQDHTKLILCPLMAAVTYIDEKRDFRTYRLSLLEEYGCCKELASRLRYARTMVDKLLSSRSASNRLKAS

Broadly, the IC50 is the concentration at which inhibition is half-maximal. A higher IC50 goes with weaker potency. The compound `CNC(=O)c1cc(CCCN2CCOCC2)n(-c2ccccc2)c1C` [US9175357, 5600] came in with a half-inhibitory concentration (IC50) of 550 µM.
